From publication PMC10156769, “The novel anti-cancer fluoropyrimidine NUC-3373 is a potent inhibitor of thymidylate synthase and an effective DNA-damaging agent” (Cancer Chemotherapy and Pharmacology, 2023)

What was measured:
[1] = molecular target: T1, thymidylate synthase (TS) (Homo sapiens, UniProt P04818); experiment: western blot shift of TS ([…] to […] kDa, ternary complex) in HCT116 and SW480 cells treated with NUC-3373 or 5-FU; assay type: cell-based
T1 construct: gene TYMS

[2] = molecular target: T2, dUTPase (Deoxyuridine triphosphate nucleotidohydrolase) (Homo sapiens, UniProt P33316); experiment: EnzChek pyrophosphate coupled assay, recombinant human dUTPase, product inhibition; assay type: biochemical
T2 construct: gene DUT
T2 sequence (P33316 70-252): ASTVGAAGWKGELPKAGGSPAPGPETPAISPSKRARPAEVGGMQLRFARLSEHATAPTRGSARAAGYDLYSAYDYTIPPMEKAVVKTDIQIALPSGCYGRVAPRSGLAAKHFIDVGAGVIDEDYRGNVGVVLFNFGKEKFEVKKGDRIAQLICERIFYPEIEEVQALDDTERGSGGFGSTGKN

T1 sequence (P04818 2-313): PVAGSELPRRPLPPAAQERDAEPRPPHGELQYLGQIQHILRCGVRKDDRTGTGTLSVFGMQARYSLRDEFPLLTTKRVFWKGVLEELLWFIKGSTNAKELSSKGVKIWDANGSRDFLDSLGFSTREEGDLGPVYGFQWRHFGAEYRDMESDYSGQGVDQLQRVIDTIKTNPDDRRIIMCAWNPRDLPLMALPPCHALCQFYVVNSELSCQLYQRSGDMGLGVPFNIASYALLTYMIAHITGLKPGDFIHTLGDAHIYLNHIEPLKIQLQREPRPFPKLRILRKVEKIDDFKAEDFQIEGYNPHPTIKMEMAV

| SMILES | western blot shift of TS (36 to 38 kDa, ternary complex) in HCT116 and SW480 cel [1] | Ki [2] [µM] |
| --- | --- | --- |
| O=c1[nH]c(=O)n([C@H]2C[C@H](O)[C@@H](COP(=O)(O)O)O2)cc1F [FdUMP] | The binding of FdUMP to TS, causing inhibition of the enzyme, is determined by the presence of an upper band | 0.62 ± 0.05 |
| O=c1ccn([C@H]2C[C@H](O)[C@@H](COP(=O)(O)O)O2)c(=O)[nH]1 [dUMP] | – | 5.8 ± 1.4 |
